Bounds are passed on as bounds.

One assay has as its target mTOR (Homo sapiens (Human), UniProt P42345). Nature of the assay: Lanthascreen kinase binding assay (Assay G). The conditions noted are these: GST-mTOR, Tracer-314. The source says: Lanthascreen™ Kinase Binding Assay for mTOR (G)
Binding Assays are based on the binding and displacement of an Alexa Fluor® 647-labeled, ATP-competitive kinase inhibitors to the kinase of interest. Invitrogen's “Kinase Tracers” have been developed to address a wide range of kinase targets and are based on ATP-competitive kinase inhibitors, making them suitable for detection of any compounds that bind to the ATP site or to an allosteric site altering the conformation of the ATP site.
In the Lanthascreen™ kinase binding assay, the donor (Eu^3+-anti-GST (glutathione 5-transferase) antibody) is excited at 340 nm and will transfer its energy to the acceptor (Alexa Fluor® 647-labeled ATP-competitive kinase inhibitor=Tracer-314). The emission from the Tracer-314 (Alexa Fluor® 647 inhibitor) can be monitored with a filter centered at 665 nm because it is located between the emission peaks of the donor, which is measured at 615/620 nm. The binding of both, the Tracer-314 and Eu^3+-anti-GST antibody, to the kinase results in a high degree of FRET from the Eu^3+-donor fluorophore to the Alexa-Fluor® 647-acceptor fluorophore on the Tracer-314. Binding of an inhibitor to the kinase competes for binding with the tracer, resulting in a loss of FRET.
50 nL of compound dilutions were dispensed onto white 384-well small volume polystyrene plate. Then 5 μL of GST-mTOR and Europium-anti-GST antibody followed by 5 μL of tracer-314 (final assay volume 10 μL) are incubated at RT. The standard reaction buffer for the Lanthascreen™ kinase binding assay contained 50 mM HEPES pH 7.5, 5 mM MgCl2, 1 mM EGTA, 0.01% Pluronic F-127. Plates are read 60 mins later in a Synergy2 reader using an integration time of 0.2 microseconds and a delay of 0.1 microseconds.
To calculate the emission ratio, the signal emitted at 665 nm from the acceptor (Alexa Fluor® 647-labeled Tracer-314) is divided by the signal emitted at 620 nm from the donor (Eu^3+ anti-GST antibody).
Control for the 0% inhibition was given by the solvent vehicle of the compounds (90% DMSO in H2O). Control for the relative 100% inhibition was performed by adding 10 μM in the mix containing GST-mTOR and Europium anti-GST antibody. An additional control for the absolute 0% inhibition is given by Eu^3+ anti-GST antibody without GST-mTOR. Standard compounds for the lipid kinase panel profiling were used as a reference and included in all assay plates in the form of 8 dilution points.

A further assay deals with PI 3-kinase gamma (Homo sapiens (Human), UniProt P48736). Briefly: Cellular U937 AKT assay (Assay K). Format: cell-based. Particulars: AKT phosphorylation in U937 monocyte cells stimulated with 10 ng/ml MIP1α; read-out: Assay K PI3Kγ IC50. The method, then: Cellular U937 AKT Assay for PI 3-Kinase Gamma (K)
Sequence of PI 3-kinase gamma (P48736 whole entry): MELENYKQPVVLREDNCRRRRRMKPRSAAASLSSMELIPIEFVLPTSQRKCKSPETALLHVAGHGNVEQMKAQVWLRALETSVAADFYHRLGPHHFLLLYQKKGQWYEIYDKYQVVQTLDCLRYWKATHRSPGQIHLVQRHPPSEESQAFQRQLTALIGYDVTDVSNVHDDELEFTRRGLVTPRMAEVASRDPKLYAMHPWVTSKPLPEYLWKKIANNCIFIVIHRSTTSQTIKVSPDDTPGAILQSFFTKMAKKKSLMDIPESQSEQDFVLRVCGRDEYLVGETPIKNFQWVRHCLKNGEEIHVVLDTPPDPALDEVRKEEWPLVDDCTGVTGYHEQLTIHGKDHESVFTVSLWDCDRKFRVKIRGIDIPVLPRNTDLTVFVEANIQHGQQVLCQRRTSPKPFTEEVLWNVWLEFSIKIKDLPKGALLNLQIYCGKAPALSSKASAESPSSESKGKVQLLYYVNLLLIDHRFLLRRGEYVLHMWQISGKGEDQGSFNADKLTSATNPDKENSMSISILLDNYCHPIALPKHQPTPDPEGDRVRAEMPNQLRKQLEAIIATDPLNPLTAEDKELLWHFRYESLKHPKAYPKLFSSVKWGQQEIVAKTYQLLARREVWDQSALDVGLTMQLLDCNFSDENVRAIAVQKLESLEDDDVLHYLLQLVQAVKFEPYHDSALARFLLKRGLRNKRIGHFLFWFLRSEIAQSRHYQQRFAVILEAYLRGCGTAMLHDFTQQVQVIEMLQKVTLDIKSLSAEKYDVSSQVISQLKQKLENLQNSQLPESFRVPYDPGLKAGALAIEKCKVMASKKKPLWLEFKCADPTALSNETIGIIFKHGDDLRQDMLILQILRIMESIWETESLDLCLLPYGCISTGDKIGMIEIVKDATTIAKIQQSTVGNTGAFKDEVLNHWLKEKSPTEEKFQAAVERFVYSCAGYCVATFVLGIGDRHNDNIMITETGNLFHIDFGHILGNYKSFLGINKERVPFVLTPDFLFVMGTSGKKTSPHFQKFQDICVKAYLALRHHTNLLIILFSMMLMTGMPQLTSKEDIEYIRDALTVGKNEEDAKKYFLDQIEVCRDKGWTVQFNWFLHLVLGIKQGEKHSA
The U937 monocyte cell line is maintained in a basal medium of RPMI 1640 supplemented with 10% heat inactivated FCS, 100 U/ml Penicillin, 100 ug/ml streptomycin and 2 mM L-glutamine (Invitrogen). U937 suspension culture is maintained by seeding cells at a density of 0.125×10^6 cells per ml in fresh medium every three or four days. Cells are incubated at 37° C., 5% CO2. Three or four days prior to assay, cells are seeded at a density of 0.25×10^6 cells per ml in a total volume of 40 ml in a T162 culture flask.
Before beginning the cell manipulations described below, the MSD (Meso Scale Discovery) assay plate is blocked by addition of 150 ul/well blocking buffer supplied and incubated with shaking for a minimum of one hour at room temperature. All steps of the assay must be performed quickly, with accurately timed incubation periods and observing temperature controls where indicated.
Cells seeded at 0.25×10^6/ml 3 or 4 days prior to the assay are aspirated, transferred to a 50 ml falcon tube, counted and centrifuged for eight minutes at 300 g at room temperature. Supernatant is aspirated, the cell pellet resuspended and washed once in HBSS (Hank's Balanced Salt Solution) by centrifugation for eight minutes at 300 g at room temperature. The cell pellet is resuspended in HBSS to a concentration of 4×10^6 per ml, and 100 μL of cell suspension added to each well of a flat-bottomed 96-well tissue culture plate. Assay plates are incubated for 1.5 hours at 37° C., 5% CO2 to allow background AKT phosphorylation to reduce before the compound stimulation step.
A 5 mM stock concentration of compound is prepared in 100% DMSO; from this a 1 in 125 dilution is made in HBSS giving a top compound concentration of 40 μM, 0.8% DMSO. Compound titrations are prepared in a fresh flat-bottomed, 96-well plate, by 10-fold serial dilution of 40 uM into HBSS 0.8% DMSO; pipette tips are replaced after each dilution is made. Compound concentrations at this stage are 4-times the final concentration required in the assay plate. Cells are stimulated with compound or HBSS 0.8% DMSO by direct transfer of 50 ul/well from the compound dilution plate. The assay plate containing compound-treated cells is then incubated for 30 minutes at 37° C. A standard plate layout is used for all experiments.
Compound-treated cells, in addition to positive control wells (“max MIP1α”), are stimulated with 50 μL per well of 40 ng/ml MIP1α (R&D Systems catalogue number 270-LD, lyophilized stock reconstituted to 50 μg/ml with PBS 0.1% BSA). Negative control wells (“min HBSS”), are stimulated with 50 μl/well of HBSS in the absence of MIP1α. Final compound concentrations are now diluted 4-fold giving a top concentration of 10 μM; where added, the final concentration of MIP1α is 10 ng/ml. Cells are incubated with MIP1α for 3 minutes, at 37° C., 5% CO2. After the three minute stimulation period, the assay plate is kept ice cold at all times. Assay plates are centrifuged for 2 minutes at 300 g, 4° C. and supernatant is removed by gently inverting, and then blotting the plate on tissue. Cells are then washed by gentle addition of 150 μL/well of ice cold HBSS and centrifugation at 300 g, for 5 minutes at 4° C. Supernatant is aspirated and the plate blotted as described above. The plate is placed on ice and cells are immediately treated with 35 μL per well of ice cold lysis buffer, prepared according to the kit instructions (per assay plate, to 5 ml of Tris lysis buffer add 100 μl of 50× protease inhibitor solution and 50 μl of each 100× phosphatase inhibitor solutions I and II). Plates are incubated on ice for 20 minutes before centrifugation at 841 g for 5 minutes, 4° C.
Block buffer is aspirated from the MSD plate, and the plate washed four times with 300 μl/well Tris wash buffer. 25 μL of cell lysate is then transferred from the assay plate to the washed MSD plate which is sealed and incubated at room temperature for one hour with shaking. […]

For the molecule `Cc1ncc(-c2cncc(-c3cc(S(=O)(=O)NCCCO)ccc3C)n2)s1` [Example 1, N-(3-Hydroxy-propyl)-4-methyl-3-[6-(2-methyl-thiazol-5-yl)-pyrazin-2-yl]-benzenesulfonamide], the IC50 is 5250 nM at mTOR and 329 nM at PI 3-kinase gamma.

As to `Cc1ccc(S(=O)(=O)NCC(C)(C)O)cc1-c1cncc(-c2cn(C)nc2C)n1` [Example 2, 3-[6-(1,3-Dimethyl-1H-pyrazol-4-yl)-pyrazin-2-yl]-N-(2-hydroxy-2-methyl-propyl)-4-methyl-benzenesulfonamide], the IC50 on mTOR turned out to be 1180 nM; at PI 3-kinase gamma, 66 nM.

For the molecule `Cc1ccc(S(=O)(=O)NCCC(C)(C)O)cc1-c1cncc(-c2cn(C)nc2C)n1` [Example 3, 3-[6-(1,3-Dimethyl-1H-pyrazol-4-yl)-pyrazin-2-yl]-N-(3-hydroxy-3-methyl-butyl)-4-methyl-benzenesulfonamide], the IC50 on mTOR is 3850 nM; on PI 3-kinase gamma it was 80 nM.

Turning to `Cc1ccc(S(=O)(=O)NCC2(C)COC2)cc1-c1cncc(-c2cn(C)nc2C)n1` [Example 4, Trans 3-[6-(1,3-Dimethyl-1H-pyrazol-4-yl)-pyrazin-2-yl]-4-methyl-N-(3-methyl-oxetan-3-ylmethyl)-benzenesulfonamide], the figures for the IC50 at mTOR and on PI 3-kinase gamma were 890 nM and 54 nM, respectively.

`Cc1ncc(-c2cncc(-c3cc(S(=O)(=O)N[C@H]4CC[C@H](O)CC4)ccc3C)n2)s1` [Example 5, Trans N-(4-Hydroxycyclohexyl)-4-methyl-3-(6-(2-methylthiazol-5-yl)pyrazin-2-yl)benzenesulfonamide]: the values for the half-inhibitory concentration (IC50) on mTOR and at PI 3-kinase gamma were 4770 nM and 38 nM, respectively.

`Cc1ccc(S(=O)(=O)NCC(C)(C)CO)cc1-c1cncc(-c2cn(C)nc2C)n1` [Example 8, 3-[6-(1,3-Dimethyl-1H-pyrazol-4-yl)-pyrazin-2-yl]-N-(3-hydroxy-2,2-dimethyl-propyl)-4-methyl-benzenesulfonamide]: the IC50 on mTOR came out at 1950 nM; on PI 3-kinase gamma, 96 nM.

In the case of `Cc1ccc(S(=O)(=O)NCCC(C)(C)O)cc1-c1cncc(-c2cnn(CCN3CCOCC3)c2)n1` [Example 9, N-(3-Hydroxy-3-methyl-butyl)-4-methyl-3-{6-[1-(2-morpholin-4-yl-ethyl)-1H-pyrazol-4-yl]-pyrazin-2-yl}-benzenesulfonamide], the IC50 at mTOR is greater than 9100 nM; on PI 3-kinase gamma, 599 nM.

Regarding `Cc1ccc(S(=O)(=O)NCCC(C)(C)O)cc1-c1cncc(-c2cn(CCN3CCOCC3)nc2C)n1` [Example 10, N-(3-Hydroxy-3-methyl-butyl)-4-methyl-3-{6-[3-methyl-1-(2-morpholin-4-yl-ethyl)-1H-pyrazol-4-yl]-pyrazin-2-yl}-benzenesulfonamide], the IC50 on mTOR is 9800 nM; on PI 3-kinase gamma, 121 nM.

On to `Cc1ccc(S(=O)(=O)N[C@H]2CC[C@H](O)CC2)cc1-c1cncc(-c2cccnc2)n1` [Example 11, Trans N-(4-Hydroxy-cyclohexyl)-4-methyl-3-(6-pyridin-3-yl-pyrazin-2-yl)-benzenesulfonamide], for which the IC50 worked out at 6240 nM on mTOR and 213 nM on PI 3-kinase gamma.

(Values after patent US9862711B2, “Pyrazine derivatives as phosphatidylinositol 3-kinase inhibitors” (NOVARTIS AG, priority 2014, dated 2018).)
